According to ChEMBL document CHEMBL4715808, “Discovery of (1S,2R,3S,4S,5R,6R)-2-Amino-3-[(3,4-difluorophenyl)sulfanylmethyl]-4-hydroxy-bicyclo[3.1.0]hexane-2,6-dicarboxylic Acid Hydrochloride (LY3020371·HCl): A Potent, Metabotropic Glutamate 2/3 Receptor Antagonist with Antidepressant-Like Activity” (J Med Chem, 2016):
Blank lines part the entries; values can stand above or below the compound they belong to.

Key:
[1] = molecular target: T1, Metabotropic glutamate receptor 2 (Homo sapiens, UniProt Q14416)
T1 sequence (Q14416 whole entry): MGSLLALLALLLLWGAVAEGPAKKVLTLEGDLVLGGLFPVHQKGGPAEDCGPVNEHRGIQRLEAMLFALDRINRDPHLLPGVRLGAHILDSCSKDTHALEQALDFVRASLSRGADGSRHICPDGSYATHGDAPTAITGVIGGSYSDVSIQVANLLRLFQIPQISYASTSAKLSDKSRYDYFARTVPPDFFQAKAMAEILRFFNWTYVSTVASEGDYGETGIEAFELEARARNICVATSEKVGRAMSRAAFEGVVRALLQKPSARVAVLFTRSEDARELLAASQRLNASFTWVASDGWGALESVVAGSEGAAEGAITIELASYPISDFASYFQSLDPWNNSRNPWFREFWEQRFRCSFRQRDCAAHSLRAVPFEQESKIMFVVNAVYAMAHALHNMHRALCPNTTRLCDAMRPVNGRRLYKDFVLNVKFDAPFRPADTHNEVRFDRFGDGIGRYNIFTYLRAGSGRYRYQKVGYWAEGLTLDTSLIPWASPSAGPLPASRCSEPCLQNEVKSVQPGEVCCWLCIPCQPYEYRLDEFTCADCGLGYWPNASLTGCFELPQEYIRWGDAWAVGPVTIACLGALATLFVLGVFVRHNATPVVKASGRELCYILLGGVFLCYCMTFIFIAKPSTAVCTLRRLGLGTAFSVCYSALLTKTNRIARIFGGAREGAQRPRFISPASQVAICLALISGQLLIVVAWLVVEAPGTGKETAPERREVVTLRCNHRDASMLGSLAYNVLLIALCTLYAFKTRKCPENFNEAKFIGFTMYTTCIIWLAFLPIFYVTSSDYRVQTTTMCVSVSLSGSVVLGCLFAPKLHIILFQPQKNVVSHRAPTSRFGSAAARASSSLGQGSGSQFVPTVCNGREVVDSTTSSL
Description: Displacement of [3H]-LY459477 from recombinant human mGlu2 receptor expressed in hamster AV12 cell membranes co-expressing rat EAAT1 incubated for 90 mins by top count scintillation method

[2] = molecular target: T1, Metabotropic glutamate receptor 2; remark: listed apart in the source
Description: Antagonist activity at human recombinant mGlu2 receptor stably expressed in golden hamster AV12 cells co-expressing rat EAAT1 assessed as reduction in DCG IV-induced inhibition of forskolin-stimulated cAMP accumulation preincubated for 20 mins followed by incubation with cAMP-d2 conjugate and anti-cAMP cryptate for 1 hr by HTRF assay

[3] = molecular target: T2, Metabotropic glutamate receptor 3 (Homo sapiens, UniProt Q14832); assay: Antagonist activity at human recombinant mGlu3 receptor stably expressed in golden hamster AV12 cells co-expressing rat EAAT1 assessed as reduction in DCG IV-induced inhibition of forskolin-stimulated cAMP accumulation preincubated for 20 mins followed by incubation with cAMP-d2 conjugate and anti-cAMP cryptate for 1 hr by HTRF assay; format: functional, cell-based
T2 sequence (Q14832 whole entry): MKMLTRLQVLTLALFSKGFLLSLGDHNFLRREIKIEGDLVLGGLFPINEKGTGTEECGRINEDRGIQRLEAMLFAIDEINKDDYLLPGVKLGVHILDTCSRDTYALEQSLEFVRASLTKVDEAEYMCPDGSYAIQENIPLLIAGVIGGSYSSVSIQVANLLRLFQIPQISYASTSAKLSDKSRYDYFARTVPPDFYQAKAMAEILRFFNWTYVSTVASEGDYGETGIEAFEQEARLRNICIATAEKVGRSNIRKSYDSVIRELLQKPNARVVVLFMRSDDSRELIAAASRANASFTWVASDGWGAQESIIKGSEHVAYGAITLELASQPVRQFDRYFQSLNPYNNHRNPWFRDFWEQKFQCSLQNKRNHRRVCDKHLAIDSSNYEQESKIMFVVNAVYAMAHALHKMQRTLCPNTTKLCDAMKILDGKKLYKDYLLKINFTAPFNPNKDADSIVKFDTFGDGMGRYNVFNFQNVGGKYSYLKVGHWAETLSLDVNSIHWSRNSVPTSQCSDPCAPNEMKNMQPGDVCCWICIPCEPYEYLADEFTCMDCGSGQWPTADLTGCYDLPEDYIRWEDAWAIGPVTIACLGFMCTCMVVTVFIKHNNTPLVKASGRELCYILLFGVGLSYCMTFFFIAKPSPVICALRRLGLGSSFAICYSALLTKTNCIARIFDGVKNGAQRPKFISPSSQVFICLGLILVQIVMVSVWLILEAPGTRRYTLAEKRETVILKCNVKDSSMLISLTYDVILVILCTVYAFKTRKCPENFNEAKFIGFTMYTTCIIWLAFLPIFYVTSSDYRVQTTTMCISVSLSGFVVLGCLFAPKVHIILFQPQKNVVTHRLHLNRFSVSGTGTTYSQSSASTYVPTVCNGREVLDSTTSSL

[4] = molecular target: T2, Metabotropic glutamate receptor 3; assay: Displacement of [3H]-LY459477 from recombinant human mGlu3 receptor expressed in hamster AV12 cell membranes co-expressing rat EAAT1 incubated for 90 mins by top count scintillation method; set-up: species or system Cell membrane
[5] = Metabolic stability of compound in dog hepatocytes assessed as parent compound loss at 2 uM; format: ADME, cell-based, Canis lupus familiaris, Hepatocyte; conditions: read-out: Drug degradation
[6] = Dose normalized AUC in CD1 mouse plasma in fasting state at 1.1 mg/kg, ip administered as single dose measured after 24 hrs by LC-MS/MS analysis; format: ADME, organism-based; conditions: in vivo
[7] = Cmax in CD1 mouse plasma in fasting state at 11 mg/kg, ip administered as single dose measured after 24 hrs by LC-MS/MS analysis; format: ADME, organism-based; set-up: route intraperitoneal, dose 11 mg/kg, time 24 hrs
[8] = Aqueous solubility of compound at pH 7.4; format: physicochemical; conditions: aqueous medium
[9] = Unbound brain concentration in CD1 mouse at 1 mg/kg, ip administered as single dose by LC-MS/MS analysis; format: ADME, organism-based; conditions: in vivo
[10] = Tmax in CD1 mouse plasma in fasting state at 1.1 mg/kg, ip administered as single dose measured after 24 hrs by LC-MS/MS analysis; format: ADME, organism-based
[11] = Tmax in CD1 mouse plasma in fasting state at 3.3 mg/kg, ip administered as single dose measured after 24 hrs by LC-MS/MS analysis; format: ADME, organism-based
[12] = Cmax in CD1 mouse plasma in fasting state at 3.3 mg/kg, ip administered as single dose measured after 24 hrs by LC-MS/MS analysis; format: ADME, organism-based; set-up: route intraperitoneal, dose 3.3 mg/kg, time 24 hrs
[13] = Tmax in CD1 mouse plasma in fasting state at 11 mg/kg, ip administered as single dose measured after 24 hrs by LC-MS/MS analysis; format: ADME, organism-based
[14] = Metabolic stability of compound in human hepatocytes assessed as parent compound loss at 2 uM; format: ADME, cell-based, Hepatocyte; conditions: read-out: Drug degradation
[15] = molecular target: T3, Metabotropic glutamate receptor 1 (Homo sapiens, UniProt Q13255); assay: Antagonist activity at human recombinant mGlu1 stably expressed in golden hamster AV12 cell membrane co-expressing Gq assessed as reduction in glutamate-induced calcium influx incubated for 90 to 120 min by Fluo-4-AM dye based FLIPR assay; format: functional, cell membranes
T3 sequence (Q13255 whole entry): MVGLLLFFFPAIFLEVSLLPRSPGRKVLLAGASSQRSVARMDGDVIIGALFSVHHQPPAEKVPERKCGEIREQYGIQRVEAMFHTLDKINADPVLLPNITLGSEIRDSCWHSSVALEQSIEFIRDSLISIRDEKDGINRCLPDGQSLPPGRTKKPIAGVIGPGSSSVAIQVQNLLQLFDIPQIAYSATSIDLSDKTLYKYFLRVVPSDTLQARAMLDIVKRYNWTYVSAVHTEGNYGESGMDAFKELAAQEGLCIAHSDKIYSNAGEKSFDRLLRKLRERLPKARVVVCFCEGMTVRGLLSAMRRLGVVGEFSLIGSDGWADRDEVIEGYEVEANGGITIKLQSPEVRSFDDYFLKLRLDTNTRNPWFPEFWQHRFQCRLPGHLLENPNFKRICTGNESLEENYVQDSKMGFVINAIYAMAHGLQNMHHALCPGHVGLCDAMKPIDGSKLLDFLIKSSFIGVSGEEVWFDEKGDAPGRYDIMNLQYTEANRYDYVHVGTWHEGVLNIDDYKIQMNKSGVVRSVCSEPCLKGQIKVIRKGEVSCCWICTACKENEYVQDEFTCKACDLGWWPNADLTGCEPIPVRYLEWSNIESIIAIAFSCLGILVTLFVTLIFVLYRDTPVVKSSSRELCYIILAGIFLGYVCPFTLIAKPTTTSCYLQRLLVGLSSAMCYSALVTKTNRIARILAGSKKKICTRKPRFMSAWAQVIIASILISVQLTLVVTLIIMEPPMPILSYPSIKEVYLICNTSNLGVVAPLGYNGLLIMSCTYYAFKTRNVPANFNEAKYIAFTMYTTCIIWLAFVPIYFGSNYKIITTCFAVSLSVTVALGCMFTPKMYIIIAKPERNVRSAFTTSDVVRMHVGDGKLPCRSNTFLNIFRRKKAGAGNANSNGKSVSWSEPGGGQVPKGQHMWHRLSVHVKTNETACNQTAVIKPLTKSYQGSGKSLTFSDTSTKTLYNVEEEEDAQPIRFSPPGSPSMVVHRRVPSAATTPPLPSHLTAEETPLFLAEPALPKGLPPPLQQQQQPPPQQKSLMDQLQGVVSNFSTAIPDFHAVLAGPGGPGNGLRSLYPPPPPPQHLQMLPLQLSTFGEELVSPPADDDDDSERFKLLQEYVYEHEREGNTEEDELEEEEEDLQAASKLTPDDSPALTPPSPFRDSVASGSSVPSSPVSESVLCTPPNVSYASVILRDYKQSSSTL

[16] = molecular target: T2, Metabotropic glutamate receptor 3; assay: Antagonist activity at human recombinant mGlu3 stably expressed in golden hamster AV12 cell membrane co-expressing Galpha15 assessed as assessed as reduction in glutamate-induced calcium influx incubated for 90 to 120 min by Fluo-4-AM dye based FLIPR assay; format: functional, cell membranes
[17] = molecular target: T3, Metabotropic glutamate receptor 1; assay: Agonist activity at human recombinant mGlu1 stably expressed in golden hamster AV12 cell membrane co-expressing Gq assessed as assessed as increase in calcium influx incubated for 90 to 120 min by Fluo-4-AM dye based FLIPR assay; format: functional, cell membranes
[18] = molecular target: T4, Metabotropic glutamate receptor 4 (Homo sapiens, UniProt Q14833); assay: Agonist activity at human recombinant mGlu4 stably expressed in golden hamster AV12 cell membrane co-expressing Galpha15 assessed as assessed as increase in calcium influx incubated for 90 to 120 min by Fluo-4-AM dye based FLIPR assay; format: functional, cell membranes
T4 sequence (Q14833 whole entry): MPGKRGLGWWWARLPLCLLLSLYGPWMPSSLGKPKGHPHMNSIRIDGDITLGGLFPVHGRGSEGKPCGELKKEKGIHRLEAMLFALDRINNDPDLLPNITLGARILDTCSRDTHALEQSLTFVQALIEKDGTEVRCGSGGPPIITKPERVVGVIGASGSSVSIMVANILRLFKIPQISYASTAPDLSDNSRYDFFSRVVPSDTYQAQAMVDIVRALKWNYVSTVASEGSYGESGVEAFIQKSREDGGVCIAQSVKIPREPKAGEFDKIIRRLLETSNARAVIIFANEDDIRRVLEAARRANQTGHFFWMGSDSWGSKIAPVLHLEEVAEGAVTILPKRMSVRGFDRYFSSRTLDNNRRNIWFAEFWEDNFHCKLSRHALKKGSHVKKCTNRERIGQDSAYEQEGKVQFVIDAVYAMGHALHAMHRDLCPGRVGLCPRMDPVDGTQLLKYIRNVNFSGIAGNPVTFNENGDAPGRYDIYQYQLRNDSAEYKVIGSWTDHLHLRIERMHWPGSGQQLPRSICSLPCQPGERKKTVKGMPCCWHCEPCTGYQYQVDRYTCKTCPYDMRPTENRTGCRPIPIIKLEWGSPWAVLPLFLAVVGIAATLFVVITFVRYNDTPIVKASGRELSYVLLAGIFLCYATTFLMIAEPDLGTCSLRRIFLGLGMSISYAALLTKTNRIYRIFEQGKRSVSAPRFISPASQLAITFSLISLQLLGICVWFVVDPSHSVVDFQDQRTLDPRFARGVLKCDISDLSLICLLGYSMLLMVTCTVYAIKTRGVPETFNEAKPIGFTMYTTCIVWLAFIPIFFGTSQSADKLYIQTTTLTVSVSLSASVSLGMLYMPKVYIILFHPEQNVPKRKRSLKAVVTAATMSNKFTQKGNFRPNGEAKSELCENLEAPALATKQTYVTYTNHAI

[19] = test system: Mus musculus; assay: Antidepressant activity in ip dosed male Swiss mouse assessed as reduction in immobility time measured for last 4 mins of 6 mins test by forced swim test; format: functional; conditions: 0.1 h
[20] = molecular target: T4, Metabotropic glutamate receptor 4; assay: Antagonist activity human recombinant mGlu4 stably expressed in golden hamster AV12 cell membrane co-expressing Galpha15 assessed as reduction in glutamate-induced calcium influx incubated for 90 to 120 min by Fluo-4-AM dye based FLIPR assay; format: functional, cell membranes
[21] = Unbound plasma concentration in CD1 mouse at 1 mg/kg, ip administered as single dose by LC-MS/MS analysis; format: ADME, organism-based; conditions: in vivo
[22] = Half life in CD1 mouse plasma in fasting state at 11 mg/kg, ip administered as single dose measured after 24 hrs by LC-MS/MS analysis; format: ADME, organism-based
[23] = Unbound plasma concentration in CD1 mouse at 3 mg/kg, ip administered as single dose by LC-MS/MS analysis; format: ADME, organism-based; conditions: in vivo
[24] = Dose normalized AUC in CD1 mouse plasma in fasting state at 3.3 mg/kg, ip administered as single dose measured after 24 hrs by LC-MS/MS analysis; format: ADME, organism-based; conditions: in vivo
[25] = Dose normalized AUC in CD1 mouse plasma in fasting state at 11 mg/kg, ip administered as single dose measured after 24 hrs by LC-MS/MS analysis; format: ADME, organism-based; conditions: in vivo
[26] = molecular target: CYP2C9 (Homo sapiens, UniProt P11712); assay: Inhibition of human CYP2C9 at 10 uM relative to control; format: ADME
[27] = AUC (0 to 24 hrs) in CD1 mouse plasma in fasting state at 3.3 mg/kg, ip administered as single dose measured after 24 hrs by LC-MS/MS analysis; format: ADME, organism-based; set-up: route intraperitoneal, time 24 hrs, dose 3.3 mg/kg
[28] = Cmax in CD1 mouse plasma in fasting state at 1.1 mg/kg, ip administered as single dose measured after 24 hrs by LC-MS/MS analysis; format: ADME, organism-based; set-up: route intraperitoneal, dose 1.1 mg/kg, time 24 hrs
[29] = Unbound plasma concentration in CD1 mouse at 10 mg/kg, ip administered as single dose by LC-MS/MS analysis; format: ADME, organism-based; conditions: in vivo
[30] = AUC (0 to 24 hrs) in CD1 mouse plasma in fasting state at 1.1 mg/kg, ip administered as single dose measured after 24 hrs by LC-MS/MS analysis; format: ADME, organism-based; set-up: route intraperitoneal, dose 1.1 mg/kg, time 24 hrs
[31] = Protein binding in human plasma assessed as unbound fraction; format: ADME, cell-free
[32] = molecular target: CYP3A4 (Homo sapiens, UniProt P08684); assay: Inhibition of human CYP3A4 at 10 uM relative to control; format: ADME
[33] = molecular target: T5, Metabotropic glutamate receptor 6 (Homo sapiens, UniProt O15303); assay: Antagonist activity at human recombinant mGlu6 stably expressed in golden hamster AV12 cell membrane co-expressing Galpha15 assessed as reduction in glutamate-induced calcium influx incubated for 90 to 120 min by Fluo-4-AM dye based FLIPR assay; format: functional, cell membranes
T5 sequence (O15303 whole entry): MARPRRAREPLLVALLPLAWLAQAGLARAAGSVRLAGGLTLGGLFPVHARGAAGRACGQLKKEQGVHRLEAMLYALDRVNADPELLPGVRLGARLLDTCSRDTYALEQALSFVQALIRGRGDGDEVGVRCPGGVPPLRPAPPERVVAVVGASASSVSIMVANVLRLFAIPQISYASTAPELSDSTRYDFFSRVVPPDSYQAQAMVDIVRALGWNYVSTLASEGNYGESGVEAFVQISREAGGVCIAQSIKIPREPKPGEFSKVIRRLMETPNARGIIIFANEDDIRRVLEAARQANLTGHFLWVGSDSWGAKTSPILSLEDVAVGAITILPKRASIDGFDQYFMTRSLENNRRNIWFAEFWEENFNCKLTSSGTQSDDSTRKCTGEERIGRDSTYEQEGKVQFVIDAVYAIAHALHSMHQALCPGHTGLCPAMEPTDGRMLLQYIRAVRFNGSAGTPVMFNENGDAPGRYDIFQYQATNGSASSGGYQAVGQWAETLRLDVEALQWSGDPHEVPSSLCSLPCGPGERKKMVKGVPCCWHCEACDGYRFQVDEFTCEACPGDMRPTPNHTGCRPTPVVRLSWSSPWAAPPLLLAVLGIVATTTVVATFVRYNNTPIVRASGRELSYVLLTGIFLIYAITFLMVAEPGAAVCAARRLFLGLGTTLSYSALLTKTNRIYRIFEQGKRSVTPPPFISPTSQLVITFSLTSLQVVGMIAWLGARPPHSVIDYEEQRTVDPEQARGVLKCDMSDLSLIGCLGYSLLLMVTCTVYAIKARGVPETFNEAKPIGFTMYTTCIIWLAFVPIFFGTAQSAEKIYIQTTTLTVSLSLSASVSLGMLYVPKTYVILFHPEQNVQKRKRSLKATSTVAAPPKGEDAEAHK

[34] = Metabolic stability of compound in rat hepatocytes assessed as parent compound loss at 2 uM; format: ADME, cell-based, Hepatocyte; conditions: read-out: Drug degradation
[35] = test system: Mus musculus; assay: Antidepressant activity in male Swiss mouse assessed as reduction in immobility time at 1 to 10 mg/kg, ip measured for last 4 mins of 6 mins test by forced swim test relative to control; format: functional; conditions: dose 1-10 mg/kg, 0.1 h
[36] = Protein binding in rat plasma assessed as unbound fraction; format: ADME, cell-free
[37] = Half life in CD1 mouse plasma in fasting state at 3.3 mg/kg, ip administered as single dose measured after 24 hrs by LC-MS/MS analysis; format: ADME, organism-based
[38] = molecular target: T6, Metabotropic glutamate receptor 5 (Homo sapiens, UniProt P41594); assay: Antagonist activity at human recombinant mGlu5 stably expressed in golden hamster AV12 cell membrane co-expressing Gq assessed as reduction in glutamate-induced calcium influx incubated for 90 to 120 min by Fluo-4-AM dye based FLIPR assay; format: functional, cell membranes
[39] = molecular target: CYP2D6 (Homo sapiens, UniProt P10635); assay: Inhibition of human CYP2D6 at 10 uM relative to control; format: ADME
[40] = molecular target: T6, Metabotropic glutamate receptor 5; assay: Agonist activity at human recombinant mGlu5 stably expressed in golden hamster AV12 cell membrane co-expressing Gq assessed as assessed as increase in calcium influx incubated for 90 to 120 min by Fluo-4-AM dye based FLIPR assay; format: functional, cell membranes
[41] = Metabolic stability of compound in mouse hepatocytes assessed as parent compound loss at 2 uM; format: ADME, cell-based, Hepatocyte; conditions: read-out: Drug degradation
[42] = Clearance in male Sprague-Dawley rat at 0.3 to 10 mg/kg, iv; format: ADME, organism-based; conditions: in vivo, dose 0.3-10 mg/kg
[43] = Half life in CD1 mouse plasma in fasting state at 1.1 mg/kg, ip administered as single dose measured after 24 hrs by LC-MS/MS analysis; format: ADME, organism-based
[44] = Antagonist activity at human recombinant mGlu7 stably expressed in golden hamster AV12 cell membrane co-expressing Galpha15 assessed as reduction in glutamate-induced calcium influx incubated for 90 to 120 min by Fluo-4-AM dye based FLIPR assay; format: cell membranes
[45] = molecular target: T5, Metabotropic glutamate receptor 6; assay: Agonist activity at human recombinant mGlu6 stably expressed in golden hamster AV12 cell membrane co-expressing Galpha15 assessed as assessed as increase in calcium influx incubated for 90 to 120 min by Fluo-4-AM dye based FLIPR assay; format: functional, cell membranes
[46] = Unbound brain concentration in CD1 mouse at 3 mg/kg, ip administered as single dose by LC-MS/MS analysis; format: ADME, organism-based; conditions: in vivo
[47] = Agonist activity at human recombinant mGlu7 stably expressed in golden hamster AV12 cell membrane co-expressing Galpha15 assessed as assessed as increase in calcium influx incubated for 90 to 120 min by Fluo-4-AM dye based FLIPR assay; format: cell membranes
[48] = Unbound brain concentration in CD1 mouse at 10 mg/kg, ip administered as single dose by LC-MS/MS analysis; format: ADME, organism-based; conditions: in vivo
[49] = AUC (0 to 24 hrs) in CD1 mouse plasma in fasting state at 11 mg/kg, ip administered as single dose measured after 24 hrs by LC-MS/MS analysis; format: ADME, organism-based; set-up: route intraperitoneal, dose 11 mg/kg, time 24 hrs

Compound: CC(=O)N[C@H]1[C@H]2[C@H](C(=O)O)[C@H]2[C@](N)(C(=O)O)[C@@H]1CSc1ccc(F)c(C)c1
Ki [1]: 0.0092 µM | IC50 [2]: 0.0262 µM | IC50 [3]: 0.0124 µM | Ki [4]: 0.0077 µM

Compound: N[C@]1(C(=O)O)[C@@H]2[C@@H](C(=O)O)[C@@H]2[C@H](O)[C@H]1CSc1ccccc1F
Ki [1]: 0.728 µM | IC50 [2]: 1.44 µM | IC50 [3]: 0.967 µM | Ki [4]: 0.369 µM

The next lines start with results.

Ki [1]: 1.2 µM | IC50 [2]: 2.28 µM
Compound: CC(C)SC[C@@H]1[C@@H](O)[C@H]2[C@H](C(=O)O)[C@H]2[C@]1(N)C(=O)O

IC50 [3]: 0.202 µM | Ki [4]: 0.0192 µM
Compound: N[C@]1(C(=O)O)[C@@H]2[C@@H](C(=O)O)[C@@H]2[C@H](O)[C@H]1CSc1ccccc1

metabolised at 2 µM [5]: < 15% | AUC/dose [6]: 4571 nM·h/mg/kg | Cmax [7]: 38.4 µM | solubility [8]: > 100 µM | Drug uptake(free) [9]: 8.1 nM | Tmax [10]: 15 min | Tmax [11]: 15 min | Cmax [12]: 20.6 µM | Tmax [13]: 15 min | metabolised at 2 µM [14]: < 15% | IC50 [15]: > 12.5 µM | IC50 [16]: 0.0025 µM | EC50 [17]: > 25 µM | EC50 [18]: > 25 µM | IC50 [20]: > 12.5 µM | Cp(f) [21]: 0.84 µM | Ki [4]: 0.0025 µM | half-life [22]: 64.2 min | Cp(f) [23]: 3.956 µM | AUC/dose [24]: 4601 nM·h/mg/kg | AUC/dose [25]: 4134 nM·h/mg/kg | inhibition at 10 µM [26]: < 10% | AUC(0-t) at 24 h [27]: 15.2 µM·h | Cmax [28]: 4.17 µM | Cp(f) [29]: 7.731 µM | AUC(0-t) at 24 h [30]: 5.03 µM·h | fraction unbound [31]: > 0.6 | inhibition at 10 µM [32]: < 10% | IC50 [33]: 4.01 µM | metabolised at 2 µM [34]: < 15% | fraction unbound [36]: > 0.6 | half-life [37]: 30 min | IC50 [38]: > 12.5 µM | inhibition at 10 µM [39]: < 10% | EC50 [40]: > 25 µM | metabolised at 2 µM [41]: < 15% | clearance [42]: 5.83 mL/min/kg | half-life [43]: 42 min | IC50 [44]: 1.26 µM | EC50 [45]: > 25 µM | Drug uptake(free) [46]: 47.3 nM | EC50 [47]: > 16.7 µM | Drug uptake(free) [48]: 151.9 nM | AUC(0-t) at 24 h [49]: 45.5 µM·h
Compound: Cl.N[C@]1(C(=O)O)[C@@H]2[C@@H](C(=O)O)[C@@H]2[C@H](O)[C@H]1CSc1ccc(F)c(F)c1
ED60 [19]: 4.9 mg/kg | %max [35]: 67.4%
